Series [1] has as its system rats subjected to FPI (TBI model). In words: Volume of cell death 72 hours after TBI (rat FPI). It counts as in vivo. Conditions: 6 mg/kg IV 30 minutes prior to TBI; measured 72 hours later. The protocol: (§1) Craniotomy and lateral fluid percussion injury (FPI) were performed using a previously validated and published procedure. Farias S, et al. J. Neurotraum, 26, 1977-1986, 2009; Frey L. C. et al. J. Neurosci. Methods 177, 267-272, 2009. Throughout the specification animals subjected to this protocol are referred to as having a TBI since this treatment protocol is a TBI model. Briefly, rats were anesthetized with 3-5% isoflurane, isosol, VEDCO Inc., St. Joseph, Mo., via nose cone and mounted in a stereotaxic head frame. A 3 millimeter (mm) craniotomy was created and centered at 3 mm caudal to bregma and 3.5 mm left of the sagittal suture, keeping the exposed dura intact. One steel support screw was embedded in the skull on the contralateral side. A Luer-Lock hub with an inside diameter of 3.5 mm was centered over the craniotomy and bonded to the skull with cyanoacrylate adhesive and capped. Dental acrylic, Snap, Parka, Inc., Edgewood, N.J., was poured around the huh and screw. After the acrylic hardened antibiotic ointment was applied around the cap and the animals were returned to their cages. […] Moistened food pellets were provided after injury, and all animals were monitored daily for well-being and weight changes. […]
Rats were administered a single-dose of the FLAP inhibitor MK-886, 6 mg/kg IV by tail vein, 30 minutes prior to TBI. […] Results are expressed as the average±SEM. […]

Series [2] concerns leukotriene LTC4 production. The series is described as follows: LTC4 levels in brain after rat fluid percussion injury (RP LC-MS/MS). It counts as in vivo. The method, then: Craniotomy and lateral fluid percussion injury (FPI) were performed using a previously validated and published procedure. Farias S, et al. J. Neurotraum, 26, 1977-1986, 2009; Frey L. C. et al. J. Neurosci. Methods 177, 267-272, 2009. Throughout the specification animals subjected to this protocol are referred to as having a TBI since this treatment protocol is a TBI model. Briefly, rats were anesthetized with 3-5% isoflurane, isosol, VEDCO Inc., St. Joseph, Mo., via nose cone and mounted in a stereotaxic head frame. A 3 millimeter (mm) craniotomy was created and centered at 3 mm caudal to bregma and 3.5 mm left of the sagittal suture, keeping the exposed dura intact. One steel support screw was embedded in the skull on the contralateral side. A Luer-Lock hub with an inside diameter of 3.5 mm was centered over the craniotomy and bonded to the skull with cyanoacrylate adhesive and capped. Dental acrylic, Snap, Parka, Inc., Edgewood, N.J., was poured around the huh and screw. After the acrylic hardened antibiotic ointment was applied around the cap and the animals were returned to their cages. The next day, approximately 15-20 hours later, animals were anesthetized with isoflurane in an induction chamber, immediately connected to the FPI apparatus, and received a 20 millisecond (ms) pulse of pressurized sterile saline at 2.7 atmospheres (atm) of pressure to simulate a moderate severity impact on the intact dural surface through the craniotomy before awakening from anesthesia. […] All animals received a subcutaneous injection of the analgesic, buprenorphine, 0.05 milligram/kilogram (mg/kg) Buprenex, prior to craniotomy, and subsequent injections every 12 hours for two days. Moistened food pellets were provided after injury, and all animals were monitored daily for well-being and weight changes.
Two groups of four rats each were subjected to FPI as described above. Four days prior to the FPI, each animal was briefly anesthetized for less than 5 minutes with 3-3.5% isoflurane and administered either NaCl 0.9%, 2 ml/kg IV (vehicle) or vinblastine sulfate 0.5 mg/kg IV in an identical volume. Neutrophil depletion was verified by complete cell blood counts (CBC) in vinblastine treated animals 4 days after administration. Both groups were euthanized by decapitation and the brain lipids extracted 1 hour after FPI. The amounts of LTC4 formed, measured by RP LC-MS/MS and normalized per milligram of protein, were compared between groups using one-way analysis of variance and the Student-Newman-Keuls test for multiple comparisons.
The indole FLAP inhibitor MK-886 was prepared at a dose of 2.5 milligram/milliliter (mg/ml), dissolved in dimethyl sulfoxide (DMSO) and then diluted with 0.9% saline to 10% DMSO. The rats were briefly anesthetized with 3-3.5% isoflurane and either […] at a dose of 6 mg/kg or vehicle was administered intravenously (IV) by tail vein injection. All animals were allowed to wake before undergoing additional procedures.
Cortical and hippocampal regions from ipsilateral and contralateral hemispheres were collected in 4 ml of 80% methanol, homogenized with a Dounee homogenizer, and internal standards were added to the homogenates. Protein content was measured using bicinchoninic acid assay (BCA) for protein to normalize lipid levels to the amount of tissue. Samples were centrifuged and the supernatant was collected. Samples were diluted to a final methanol concentration of lower than 15% and then the lipids were extracted using a solid phase extraction cartridge, Strata C18-E, 100 mg/1 ml, Phenomenex, Torrence Calif. The eluate, 1 ml of methanol, was dried down and reconstituted in 70 microliters (μl) of High Performance Liquid Chromotography (HPLC) solvent A, which is 8.3 mM acetic acid buffered to pH 5.7 with NH4OH, plus […] of solvent B, which is acetonitrile/methanol, 65/35, v/v. […]

For series [3], the system named is rats subjected to FPI (TBI model). In words: Evans Blue extravasation, BBB permeability in hippocampus (rat FPI). It counts as in vivo. Conditions: 15 minutes after TBI; slices five hours post-injury. The protocol:
as §1, with “intact.” for “intact. One steel support screw was embedded in the skull on the contralateral side. A Luer-Lock hub with an inside diameter of 3.5 mm was centered over the craniotomy and bonded to the skull with cyanoacrylate adhesive and capped. Dental acrylic, Snap, Parka, Inc., Edgewood, N.J., was poured around the huh and screw. After the acrylic hardened antibiotic ointment was applied around the cap and the animals were returned to their cages.”
One hour prior to FPI, rats received a 5 ml intraperitoneal (IP) injection of Evans Blue (EB) solution, 2% w/v in saline. […] Images from each slice were stitched together using Fiji/ImageJ (NIH), and EB-positive cells in the hippocampal cell layers were quantified using the cell counter tool.
The inventors utilized Evans Blue (EB) fluorescence to assess BBB permeability in the rat FPI model. […] Fluorescence microscopy was used to image brain slices harvested five hours post-injury, taking advantage of EB's intrinsic fluorescent properties, excitation at 620 nm and emission at 680 nm. […]

The conditions of series [4]: cited from earlier work.
Series [5] concerns rats subjected to FPI (TBI model). In words: Rotarod vestibulomotor performance after TBI (rat FPI). Type of series: in vivo. The settings on record: administered 15 minutes after TBI. The method, then:
Craniotomy and lateral fluid percussion injury (FPI) were performed using a previously validated and published procedure. Farias S, et al. J. Neurotraum, 26, 1977-1986, 2009; Frey L. C. et al. J. Neurosci. Methods 177, 267-272, 2009. Throughout the specification animals subjected to this protocol are referred to as having a TBI since this treatment protocol is a TBI model. Briefly, rats were anesthetized with 3-5% isoflurane, isosol, VEDCO Inc., St. Joseph, Mo., via nose cone and mounted in a stereotaxic head frame. A 3 millimeter (mm) craniotomy was created and centered at 3 mm caudal to bregma and 3.5 mm left of the sagittal suture, keeping the exposed dura intact. One steel support screw was embedded in the skull on the contralateral side. A Luer-Lock hub with an inside diameter of 3.5 mm was centered over the craniotomy and bonded to the skull with cyanoacrylate adhesive and capped. Dental acrylic, Snap, Parka, Inc., Edgewood, N.J., was poured around the huh and screw. […] Moistened food pellets were provided after injury, and all animals were monitored daily for well-being and weight changes.
For rotarod testing, the rod's rotation was programmed to accelerate from 0 to 50 rpm over the course of 300 seconds. Four trials were run at each selected time point after injury and the individual trial and mean times for each animal are recorded. […]
For orientation: In the rotarod test animals must keep their balance on a rotating rod.

Where [6] appears, read: MK-886 6 mg/kg IV 30 minutes prior to TBI, 1 hour after TBI.
The mark [7] stands for this setting: MK-886 6 mg/kg IV 30 minutes prior to TBI, measured 1 hour after TBI.
The mark [8] stands for this setting: single dose 15 minutes after TBI.

`CC(C)c1ccc2c(c1)c(SC(C)(C)C)c(CC(C)(C)C(=O)O)n2Cc1ccc(Cl)cc1` [MK-886, 1-[(4-Chlorophenyl)methyl]-3-[(1,1-dimethylethyl)thio]-α,α-dimethyl-5-(1-methylethyl)-1H-Indole-2-propanoic acid]: in series [1], the “cell death induced by TBI” value was “significant reductions in cell death”. Besides, in series [2] (setting [6]), the “LTC4 levels lower than vehicle-treated injured animals, contralateral right hemisphere” value is 64% and the “LTC4 levels lower than vehicle-treated injured animals, ipsilateral left hemisphere” value worked out at 85%. Further, in series [2] (setting [7]), the “LTC4 level, contralateral right hemisphere” value was 2.6+/−0.80 pg/mg protein and the “LTC4 level, ipsilateral left hemisphere” value was 3.39+/−0.42 pg/mg protein. Further, in series [2] (MK-886-treated injured rats), the “LTC4 level, ipsilateral cortex” value was “undetectable” and the “LTC4 level, ipsilateral hippocampus” value is “undetectable”. For the same molecule, in series [2] (setting [8]), the “LTC4 level, contralateral hemisphere” value is listed as “below the detectable threshold” and the “LTC4 level, ipsilateral hemisphere” value is “below the detectable threshold”. Moreover, the “number of EB-positive cells in the CA1 region” value in series [3] is 69.25+/−36.82. Further, in series [4], the plasma protein binding entry is on record as “high”. Also, the “vestibulomotor performance on the rotarod compared to vehicle” value in series [5] was “improved vestibulomotor performance”.

Values taken from patent US10080748B2, “Use of flap inhibitors to reduce neuroinflammation mediated injury in the central nervous system” (Bioscience Pharma Partners, LLC, priority 2014, dated 2018).
